This passage reports IC50 and EC50 results from patent US10744150B2, “Cyclic dinucleotides as anticancer agents” (BRISTOL-MYERS SQUIBB COMPANY, priority 2017, dated 2020).

Where two headings read alike, the source gives them in different places.

The target of assay [1] is T1, STING AQ: His-TVMV-S-hSTING(155-341)-G230A-R293Q (Homo sapiens, UniProt Q86WV6, G230A/H232R/R293Q).
T1 construct: His-TVMV-S-hSTING(155-341)-G230A-R293Q
Put plainly: STING HTRF binding assay (time resolved FRET competition), STING AQ. As to conditions: 20 nM His-tagged STING cytoplasmic domain, 40 nM fluorescein-labeled cGAMP analog probe, one hour; read-out: HTRF Binding Assays IC50 STING AQ. Here is the method: (§1) A time resolved FRET-based competition binding assay was used to assess test article binding to STING WT and STING AQ. His-tagged STING cytoplasmic domain (WT or AQ) at a concentration of 20 nM was incubated with 2.5 nM Tb-labeled anti-His antibody, test compound, and fluorescein-labeled cGAMP analog probe (BioLog cat. no. C195) at a concentration of 200 nM (STING WT) or 40 nM (STING AQ) in PBS containing 0.005% Tween-20 and 0.1% BSA for one hour. Fluorescence at 495 nm and 520 nm was measured using an EnVision microplate reader to quantify FRET between Tb-labeled anti-His antibody and fluorescein-labeled probe. Background was defined as the signal obtained in the absence of STING protein, and background subtracted FRET ratios were normalized to the maximum signal obtained in the absence of test compound. These values were converted to a percent inhibition. Percent inhibition was determined for test compounds at 11 concentrations. The IC50, defined as the concentration of competing test compound needed to reduce specific binding of the probe by 50%, was calculated using the 4 parameter logistic equation to fit the data

A further assay concerns IRF3. In words: STING THP1 reporter assay, IRF pathway (secreted luciferase Lucia, QUANTI-Luc). In kind it is cell-based. As to conditions: THP1-Dual cells, 10% human plasma, 100% activation = 100 μM cGAMP, luciferase readout, read-out: THP1 Reporter Assays EC50 IRF3. From the text:
(§2) THP1-Dual™ cells were derived from the human THP-1 monocyte cell line by stable integration of two inducible reporter constructs. To this end, THP1-Dual™ cells allow the simultaneous study of the NF-κB pathway, by monitoring the activity of SEAP, and the IRF pathway by assessing the activity of a secreted luciferase (Lucia). Both reporter proteins are readily measurable in the cell culture supernatant when using QUANTI-Blue™, a SEAP detection reagent, and QUANTI-Luc™, a luciferase detection reagent.
(§3) THP1-Dual™ cells induce the activation of NF-κB in response to STING agonists. They also trigger the IRF pathway upon stimulation with STING agonists, such as cGAMP. Here, the THP-1-Dual cells were used to assess STING binders for function on the cellular level.
(§4) Serial dilutions of compounds in DMSO were added to low volume 384 well plates at 100 nl/well using an ECHO acoustic dispenser (Labcyte, model 550) to achieve final starting concentration of 100 μM in cell suspension. THP-1 Dual™ STING reporter cells (Invivogen, Dual cells cat # THPD-nfis) were added to the plates with compounds at 15,000 cells in 10 μL per well in RPMI media (Gibco, cat #11875) containing 10% human plasma in a low volume 384-well black wall clear bottom tissue culture plate (Corning, cat #3542) for SEAP assay and low volume solid white plate (Corning, cat #3826) for luciferase assay. One column of the plate was reserved for treatment with cGAMP at 100 μM for 100% activation calculation and one column for no treatment (DMSO only) for baseline activation. Plates were then incubated in 37° C. incubator at 5% CO2 for 20 hours.
(§5) In the SEAP assay, 5 μl of 2× QuantiBlue (Invivogen, cat # Rep-qb2) is added to 384 well black plates seeded with THP1 cells and incubated at 37° C. for 2 hours. Plates were read on the Envision (Perkin Elmer) at 620 nm wavelength (OD620). In the luciferase assay, 5 μl of Quantiluc (Invivogen, Rep-qlc2) is added to white 384 well plates seeded with THP1 cells and read at 5 minutes on the Envision (Perkin Elmer) using a luminescence protocol (RLU). For both cell lines, 100% activation was determined by value (RLU) of THP-1 Dual STING cells stimulated with 100 μM cGAMP (Invivogen, cat # TLRL-NACGA23-5).
For orientation: In a reporter assay the amount or activity of a reporter protein is the signal.

The next assay relates to NFkB. Put plainly: STING THP1 reporter assay, NF-κB pathway (SEAP, QUANTI-Blue). In kind it is cell-based. As to conditions: THP1-Dual cells, 10% human plasma, 100% activation = 100 μM cGAMP.
Text: as §2, §3, §4, §5

Assay [2] deals with T2, STING WT: His-TVMV-S-hSTING(155-341)-H232R (Homo sapiens, UniProt Q86WV6, H232R).
T2 construct: His-TVMV-S-hSTING(155-341)-H232R
T2 sequence (Q86WV6 with tags, fused parts or gaps H232R): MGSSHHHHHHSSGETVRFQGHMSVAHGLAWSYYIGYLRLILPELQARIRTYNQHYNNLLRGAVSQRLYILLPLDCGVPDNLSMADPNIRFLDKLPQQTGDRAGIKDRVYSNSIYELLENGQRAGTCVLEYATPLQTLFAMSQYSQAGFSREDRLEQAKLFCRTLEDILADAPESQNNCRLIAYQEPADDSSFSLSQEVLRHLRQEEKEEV
In words: STING HTRF binding assay (time resolved FRET competition), STING WT. Conditions: 20 nM His-tagged STING cytoplasmic domain, 200 nM fluorescein-labeled cGAMP analog probe, one hour; read-out: HTRF Binding Assays IC50 STING WT. Here is the method:
as §1
(In general: In TR-FRET formats the signal depends on donor and acceptor labels being close together.)

Setting [3] is: 20 hours, SEAP readout OD620, read-out: THP1 Reporter Assays EC50 NFkB.
The mark [4] stands for this setting: Homo sapiens, THP-1, 20 h, SEAP readout OD620, read-out: THP1 Reporter Assays EC50 NFkB.

T1 sequence (Q86WV6 with tags, fused parts or gaps G230A/H232R/R293Q): as the sequence (Q86WV6 with tags, fused parts or gaps H232R) above, with G99A, R162Q counted along it

One may read the IC50 as the midpoint of a concentration-inhibition curve. Broadly, the EC50 is the concentration that produces a half-maximal response. As for `Nc1ncnc2c1ncn2[C@@H]1O[C@@H]2COP(O)(=S)OC[C@@H]3[C@@H](COP(O)(=S)O[C@H]2[C@H]1F)C[C@H]3n1cnc2c(O)nc3nccn3c21` (single isomer, unassigned) [Example 3-1], the IC50 in assay [1] came to 0.43 µM; in assay [2], 15 µM. Further, the EC50 in the assay on IRF3 (20 hours) and in the assay with NFkB (setting [3]) was greater than 100 µM in each case.

For the compound `Nc1ncnc2c1ncn2[C@@H]1C[C@@H]2COP(=O)(O)O[C@H]3[C@@H](F)[C@H](n4cnc5c(N)ncnc54)O[C@@H]3COP(=O)(O)OC[C@H]21` [Example 10, (1R,6S,8R,9R,15R,17R,18R)-8,17-bis(6-amino-9H-purin-9-yl)-18-fluoro-3,12-dihydroxy-2,4,11,13,16-pentaoxa-3λ^5,12λ^5-diphosphatricyclo[13.3.0.0^6,9]octadecane-3,12-dione], the IC50 in assay [1] was determined as 0.04 µM; in assay [2], 5.2 µM. Besides, the EC50 in the assay on IRF3 (Homo sapiens, THP-1, 20 h) was greater than 100 µM; in the assay with NFkB (setting [4]), greater than 100 µM.

As to `NC(=O)c1cccc2c1nnn2[C@@H]1O[C@@H]2COP(O)(=S)OC[C@@H]3[C@@H](COP(O)(=S)O[C@H]2[C@H]1F)C[C@H]3n1cnc2c(N)ncnc21` (single isomer, unassigned) [Example 12-3], the IC50 in assay [1] is 64.4 µM; in assay [2], greater than 100 µM. The EC50 in the assay with IRF3 (20 hours) and in the assay on NFkB (setting [3]) was greater than 100 µM each time.

`Nc1nc2c(ncn2[C@@H]2C[C@@H]3COP(O)(=S)O[C@H]4[C@@H](F)[C@H](n5cnc6c(N)ncnc65)O[C@@H]4COP(O)(=S)OC[C@H]32)c(=O)[nH]1` (single isomer, unassigned) [Example 18-2]: the IC50 in assay [1] was found to be 0.02 µM; in assay [2], 0.15 µM. Besides, the EC50 with IRF3 (20 hours) and with NFkB (setting [3]) was greater than 100 µM throughout.

Turning to `Nc1ncnc2c1ncn2[C@@H]1C[C@@H]2COP(O)(=S)O[C@@H]3[C@H](O)[C@@H](COP(O)(=S)OC[C@H]21)O[C@H]3n1cnc2c(O)nc3nccn3c21` (single isomer, unassigned) [Example 15-4], the IC50 in assay [1] was 0.47 µM; in assay [2] it was 3.9 µM. For the same compound, the EC50 in the assay with IRF3 (20 hours) and in the assay on NFkB (setting [3]) was greater than 100 µM throughout.

Take `Nc1ncnc2c1ncn2[C@@H]1C[C@@H]2COP(O)(=S)O[C@H]3[C@H](F)[C@H](n4cnc5c(N)ncnc54)O[C@@H]3COP(O)(=S)OC[C@H]21` (single isomer, unassigned) [Example 17-1]: the IC50 in assay [1] and in assay [2] was greater than 100 µM each time. Further, the 50% effective concentration (EC50) in the assay with IRF3 (Homo sapiens, THP-1, 20 h) is greater than 100 µM; in the assay on NFkB (setting [3]), 2 µM.

For the compound `Nc1ncnc2c1ccn2[C@@H]1O[C@@H]2COP(O)(=S)OC[C@@H]3[C@@H](COP(O)(=S)O[C@H]2[C@@H]1F)C[C@H]3n1cnc2c(N)ncnc21` (single isomer, unassigned) [Example 8-4], the IC50 was 15.8 µM in assay [1] and greater than 100 µM in assay [2]. In addition, the EC50 in the assay with IRF3 (20 hours) and in the assay with NFkB (setting [3]) was greater than 100 µM throughout.

Turning to `NC(=O)c1cccc2c1nnn2[C@@H]1O[C@@H]2COP(O)(=S)OC[C@@H]3[C@@H](COP(O)(=S)O[C@@H]1[C@@H]2F)C[C@H]3n1cnc2c(N)ncnc21` (single isomer, unassigned) [Example 11-1], the half-inhibitory concentration (IC50) in assay [1] amounted to 3.1 µM; in assay [2] it was 20.5 µM. In addition, the EC50 in the assay with IRF3 (Homo sapiens, THP-1, 20 h) is greater than 100 µM; with NFkB (setting [4]) it was greater than 100 µM.

In the case of `NC(=O)c1cccc2c1nnn2[C@@H]1O[C@@H]2COP(O)(=S)OC[C@@H]3[C@@H](COP(O)(=S)O[C@H]2[C@H]1F)C[C@H]3n1cnc2c(N)ncnc21` (single isomer, unassigned) [Example 12-4], the IC50 in assay [1] worked out at 0.4 µM; in assay [2], 22 µM. For the same compound, the EC50 in the assay with IRF3 (20 hours) and with NFkB (setting [3]) was greater than 100 µM throughout.

Take `Nc1ncnc2c1ncn2[C@@H]1C[C@@H]2COP(O)(=S)O[C@@H]3[C@H](O)[C@@H](COP(O)(=S)OC[C@H]21)O[C@H]3n1cnc2c(O)nc3nccn3c21` (single isomer, unassigned) [Example 15-2]: the figures for the IC50 in assay [1] and in assay [2] were 1.8 µM and 26.9 µM, respectively. The EC50 in the assay on IRF3 (20 hours) and in the assay with NFkB (setting [3]) was greater than 100 µM in each case.
